Source: patent publication US20240174690A1, “ANNULATED 2-AMINO-3-CYANO THIOPHENES AND DERIVATIVES FOR THE TREATMENT OF CANCER” (BOEHRINGER INGELHEIM INTERNATIONAL GMBH, priority 2021, published 2024)

Assays:
KRAS (G12D)::SOS1 = KRAS (G12D)::SOS1 (Homo sapiens (Human), UniProt P01116, G12D); assay: KRAS::SOS1 AlphaScreen binding assay, KRAS G12D
Method in brief: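 KRAS 1-169 (biotinylated avi-tag) with GST-SOS1 564-1049 and 10 µM GDP in PBS/0.1% BSA/0.05% Tween 20: WT and G13D 10 nM each with 10 nM SOS1; G12D 10 nM and G12C 7.5 nM with 5 nM SOS1. After 30 min, glutathione acceptor/streptavidin donor beads were added for 60 min at RT in the dark, then AlphaScreen read; 4-parameter IC50.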

[1] = Caco-2 assay (permeability PappAB, PappBA, efflux ratio); assay type: in vitro ADME; details: human, Caco-2, 10 μM test compound, pH 7.4; for Papp A→B at 90 min, 10 μM: apical to basolateral; for efflux ratio at 90 min, 10 μM: efflux ratio PappBA/PappAB, read-out: Caco ER
Method in brief: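 Confluent Caco-2 monolayers on filter supports, 0.25% BSA in both donor and receiver buffer; transport measured a-b and b-a. After 25-30 min preincubation at 37 °C, samples at 0, 30, 60, 90 min quantified by HPLC/MS/MS. Papp from receiver amount per time, filter area and initial donor concentration; efflux ratio = PappBA/PappAB.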

KRAS (G12D)::SOS1, sequence (P01116 other isoform, or with tags, fused parts or gaps G12D): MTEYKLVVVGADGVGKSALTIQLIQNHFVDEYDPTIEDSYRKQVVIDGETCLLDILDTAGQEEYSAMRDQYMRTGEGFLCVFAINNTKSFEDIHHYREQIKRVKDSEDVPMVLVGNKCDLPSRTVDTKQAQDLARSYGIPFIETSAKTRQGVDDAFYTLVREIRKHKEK

Compound | IC50 (KRAS (G12D)::SOS1) [nM] | Papp A→B at 90 min, 10 μM [1] [×10⁻⁶ cm/s] | efflux ratio at 90 min, 10 μM [1]
C[C@H](Oc1cc(N2CCN(C)C3(CC3)C2)nc(-c2onc3c2CCC[C@@]32CCCc3sc(N)c(C#N)c32)n1)[C@@H]1CCCN1C [I-41] | 1 | – | –
C[C@H](Oc1cc(N2CCN(CCO)CC2)nc(-c2noc3c2CCC[C@@]32CCCc3sc(N)c(C#N)c32)n1)[C@@H]1CCCN1C [II-8] | 1 | 1.1 | 12.7
C[C@H](Oc1cc(N2CC3CCC(C2)N3)nc(-c2noc3c2CCC[C@@]32CCCc3sc(N)c(C#N)c32)n1)[C@@H]1CCCN1C [II-34] | 1 | 0.4 | 37.8
C[C@H]1CN(C)CCCN1c1nc(-c2onc3c2CCC[C@@]32CCCc3sc(N)c(C#N)c32)cc(N2CCN(C)C3(CC3)C2)n1 [I-42] | 35 | – | –
C[C@H](Oc1cc(N2CC[C@@H](N(C)C)C2)nc(-c2noc3c2CCC[C@@]32CCCc3sc(N)c(C#N)c32)n1)[C@@H]1CCCN1C [II-47] | 1 | – | –
CO[C@@H]1C[C@@H]([C@H](C)Oc2cc(-c3ccn(C)n3)nc(-c3onc4c3CCC[C@@]43CCCc4sc(N)c(C#N)c43)n2)N(C)C1 [I-23] | 7 | 9.2 | 1.5
C[C@H](Oc1nc(-c2noc3c2CCC[C@@]32CCCc3sc(N)c(C#N)c32)cc(N2C[C@H](C)N[C@@H](C)C2)n1)[C@@H]1CCCN1C [II-46] | 1 | 0.8 | 28.8
C[C@H](Oc1cc(N2CCN(C)C3(COC3)C2)nc(-c2noc3c2CCC[C@@]32CCCc3sc(N)c(C#N)c32)n1)[C@@H]1CCCN1C [II-13] | 1 | 1.4 | 21.4
C[C@H](Oc1cc(-c2ccn(C[C@@H](C)O)n2)nc(-c2onc3c2CCC[C@@]32CCCc3sc(N)c(C#N)c32)n1)[C@@H]1CCCN1C [I-30] | 2 | 2 | 18.5
C[C@H](Oc1cc(-c2cnn(C)n2)nc(-c2noc3c2CCC[C@@]32CCCc3sc(N)c(C#N)c32)n1)[C@@H]1C[C@@H](F)CN1C [II-28] | 22 | – | –
C[C@H](Oc1cc(N2CCNC3(CCC3)C2)nc(-c2onc3c2CCC[C@@]32CCCc3sc(N)c(C#N)c32)n1)[C@@H]1CCCN1C [I-3] | 1 | 1.2 | 20.8
C[C@H](Oc1cc(-c2cnsc2)nc(-c2onc3c2CCC[C@@]32CCCc3sc(N)c(C#N)c32)n1)[C@@H]1CCCN1C [I-27] | 3 | – | 1.1
C[C@H](Oc1cc(N2CCNC3(CCC3)C2)nc(-c2noc3c2CCC[C@@]32CCCc3sc(N)c(C#N)c32)n1)[C@@H]1CCCN1C [II-40] | 1 | 0.8 | 39.7
C[C@H](Oc1cc(N2CCN(C)C3(CC3)C2)nc(-c2onc3c2CCC[C@@]32CCCc3sc(N)c(C#N)c32)n1)[C@@H]1C[C@@H](F)CN1C [I-39] | 1 | – | 0.6
CNC(=O)c1ccn(-c2cc(O[C@@H](C)[C@@H]3CCCN3C)nc(-c3noc4c3CCC[C@@]43CCCc4sc(N)c(C#N)c43)n2)n1 [II-20] | 2 | 11.1 | 3.3
CCOC(=O)c1ccn(-c2cc(O[C@@H](C)[C@@H]3CCCN3C)nc(-c3noc4c3CCC[C@@]43CCCc4sc(N)c(C#N)c43)n2)n1 [II-23] | 2 | – | –
C[C@H](Oc1cc(-n2ccc(C(=O)N(C)C3COC3)n2)nc(-c2onc3c2CCC[C@@]32CCCc3sc(N)c(C#N)c32)n1)[C@@H]1CCCN1C [I-60] | 1 | – | –
C[C@H](Oc1cc(N2C[C@@H](N(C)C)[C@@H](F)C2)nc(-c2noc3c2CCC[C@@]32CCCc3sc(N)c(C#N)c32)n1)[C@@H]1CCCN1C [II-11] | 1 | – | –
C[C@H](Oc1cc(-n2ccc(C(=O)N3CCCC3)n2)nc(-c2noc3c2CCC[C@@]32CCCc3sc(N)c(C#N)c32)n1)[C@@H]1CCCN1C [II-19] | 1 | – | –
C[C@@H]1CN(c2cc(O[C@@H](C)[C@@H]3C[C@@H](F)CN3C)nc(-c3noc4c3CCC[C@@]43CCCc4sc(N)c(C#N)c43)n2)CC2(CC2)N1 [II-17] | 2 | – | –
C[C@H](Oc1cc(N2CCN(C)CC2)nc(-c2noc3c2CCC[C@@]32CCCc3sc(N)c(C#N)c32)n1)[C@@H]1CCCN1[C@@H]1CCOC1 [II-39] | 1 | – | –
C[C@H]1CN(C)CCCN1c1cc(N2CCN(C)CC2)nc(-c2noc3c2CCC[C@@]32CCCc3sc(N)c(C#N)c32)n1 [II-30] | 4 | – | –
[2H]C([2H])([2H])N1C[C@H](F)C[C@H]1[C@H](C)Oc1cc(N2CCN(C)C3(CC3)C2)nc(-c2noc3c2CCC[C@@]32CCCc3sc(N)c(C#N)c32)n1 [II-209] | – | – | 0.8

Compound | IC50 (KRAS (G12D)::SOS1) [nM] | Papp A→B at 90 min, 10 μM [1] [×10⁻⁶ cm/s] | efflux ratio at 90 min, 10 μM [1]
C[C@H](Oc1cc(-n2ccc(C(=O)N[C@H]3CCOC3)n2)nc(-c2onc3c2CCC[C@@]32CCCc3sc(N)c(C#N)c32)n1)[C@@H]1CCCN1C [I-57] | 2 | – | –
[2H]C([2H])([2H])N1C[C@H](F)C[C@H]1[C@H](C)Oc1cc(N2CCNC3(CC3)C2)nc(-c2noc3c2CCC[C@@]32CCCc3sc(N)c(C#N)c32)n1 [II-208] | – | – | 1.8
C[C@H](Oc1cc(N2CCNC3(CCCC3)C2)nc(-c2noc3c2CCC[C@@]32CCCc3sc(N)c(C#N)c32)n1)[C@@H]1CCCN1C [II-41] | 1 | – | –
COCCNC(=O)c1ccn(-c2cc(O[C@@H](C)[C@@H]3[C@@H](OC)CCN3C)nc(-c3onc4c3CCC[C@@]43CCCc4sc(N)c(C#N)c43)n2)n1 [I-55] | 1 | – | –
C[C@H](Oc1cc(-n2ccnn2)nc(-c2onc3c2CCC[C@@]32CCCc3sc(N)c(C#N)c32)n1)[C@@H]1CCCN1C [I-32] | 2 | – | –
C[C@@H]1CN(c2cc(O[C@@H](C)[C@@H]3CCCN3C)nc(-c3noc4c3CCC[C@@]43CCCc4sc(N)c(C#N)c43)n2)C[C@H](C)N1 [II-36] | 1 | – | –
C[C@H](Oc1cc(-c2ccn3ncnc3c2)nc(-c2onc3c2CCC[C@@]32CCCc3sc(N)c(C#N)c32)n1)[C@@H]1CCCN1C [I-33] | 6 | – | –
C[C@H](Oc1cc(N2CCN(C)C3(CCC3)C2)nc(-c2onc3c2CCC[C@@]32CCCc3sc(N)c(C#N)c32)n1)[C@@H]1CCCN1C [I-44] | 2 | – | –
CO[C@H]1CCN(C)[C@@H]1[C@H](C)Oc1cc(-n2ccc(C(=O)N[C@@H]3CCOC3)n2)nc(-c2onc3c2CCC[C@@]32CCCc3sc(N)c(C#N)c32)n1 [I-53] | 1 | – | –
C[C@H](Oc1cc(-n2nccn2)nc(-c2onc3c2CCC[C@@]32CCCc3sc(N)c(C#N)c32)n1)[C@@H]1CCCN1C [I-29] | 6 | – | –
C[C@H](Oc1cc(-c2ccn(C)n2)nc(-c2onc3c2CCC[C@@]32CCCc3sc(N)c(C#N)c32)n1)[C@@H]1CCCN1C [I-21] | 4 | – | –
C[C@H](Oc1cc(-c2ccc(N)nc2)nc(-c2onc3c2CCC[C@@]32CCCc3sc(N)c(C#N)c32)n1)[C@@H]1CCCN1C [I-25] | 5 | – | –
CO[C@H]1CCN(C)[C@@H]1[C@H](C)Oc1cc(-n2ccc(CC(=O)NC(C)C)n2)nc(-c2onc3c2CCC[C@@]32CCCc3sc(N)c(C#N)c32)n1 [I-48] | 1 | – | –
C[C@H](Oc1cc(N2CCNCC2)nc(-c2noc3c2CCC[C@@]32CCCc3sc(N)c(C#N)c32)n1)[C@@H]1CCCN1C [II-45] | 1 | – | –
C[C@H](Oc1nc(-c2onc3c2CCC[C@@]32CCCc3sc(N)c(C#N)c32)cc(N2CCN(C)C3(CC3)C2)n1)[C@@H]1CCCN1C [I-40] | 6 | – | –
Cc1ccc(-c2cc(O[C@@H](C)[C@@H]3CCCN3C)nc(-c3onc4c3CCC[C@@]43CCCc4sc(N)c(C#N)c43)n2)cn1 [I-28] | 10 | – | –
Cc1nc(-c2cc(O[C@@H](C)[C@@H]3CCCN3C)nc(-c3onc4c3CCC[C@@]43CCCc4sc(N)c(C#N)c43)n2)cs1 [I-24] | 2 | – | –
C[C@H](Oc1cc(-n2ccc(C(=O)O)n2)nc(-c2noc3c2CCC[C@@]32CCCc3sc(N)c(C#N)c32)n1)[C@@H]1CCCN1C [II-24] | 3 | – | –
C[C@H](NC(=O)c1ccn(-c2cc(O[C@@H](C)[C@@H]3CCCN3C)nc(-c3onc4c3CCC[C@@]43CCCc4sc(N)c(C#N)c43)n2)n1)c1ccccn1 [I-59] | 1 | – | –
C[C@H](Oc1cc(Cl)nc(-c2onc3c2CCC[C@@]32CCCc3sc(N)c(C#N)c32)n1)[C@@H]1CCCN1C [I-1] | 3 | – | –
CO[C@H]1CCN(C)[C@@H]1[C@H](C)Oc1cc(-n2ccc(C(=O)N[C@H]3CCOC3)n2)nc(-c2onc3c2CCC[C@@]32CCCc3sc(N)c(C#N)c32)n1 [I-54] | 1 | – | –
C[C@H](Oc1cc(N2C[C@H](C)NC3(CC3)C2)nc(-c2noc3c2CCC[C@@]32CCCc3sc(N)c(C#N)c32)n1)[C@@H]1C[C@@H](F)CN1C [II-18] | 2 | – | –
